{
  "source": "paper PMC2819980",
  "about": "(Chemistry & biology, 2010)",
  "type_in_all_cases": "biochemical",
  "key": {"[1]": {"molecular_target": "T1, FrbI (Streptomyces rubellomurinus, UniProt Q0ZQ40)", "T1 sequence (Q0ZQ40 whole entry)": "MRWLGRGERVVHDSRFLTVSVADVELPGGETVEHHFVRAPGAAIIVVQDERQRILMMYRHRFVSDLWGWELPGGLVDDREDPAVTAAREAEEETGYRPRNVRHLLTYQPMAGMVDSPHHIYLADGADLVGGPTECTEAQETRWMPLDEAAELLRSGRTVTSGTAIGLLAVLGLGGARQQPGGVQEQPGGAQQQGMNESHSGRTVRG", "assay": "in vitro hydrolysis"}, "[2]": {"molecular_target": "FrbH (Streptomyces rubellomurinus, UniProt Q0ZQ41)", "sequence (Q0ZQ41 whole entry)": "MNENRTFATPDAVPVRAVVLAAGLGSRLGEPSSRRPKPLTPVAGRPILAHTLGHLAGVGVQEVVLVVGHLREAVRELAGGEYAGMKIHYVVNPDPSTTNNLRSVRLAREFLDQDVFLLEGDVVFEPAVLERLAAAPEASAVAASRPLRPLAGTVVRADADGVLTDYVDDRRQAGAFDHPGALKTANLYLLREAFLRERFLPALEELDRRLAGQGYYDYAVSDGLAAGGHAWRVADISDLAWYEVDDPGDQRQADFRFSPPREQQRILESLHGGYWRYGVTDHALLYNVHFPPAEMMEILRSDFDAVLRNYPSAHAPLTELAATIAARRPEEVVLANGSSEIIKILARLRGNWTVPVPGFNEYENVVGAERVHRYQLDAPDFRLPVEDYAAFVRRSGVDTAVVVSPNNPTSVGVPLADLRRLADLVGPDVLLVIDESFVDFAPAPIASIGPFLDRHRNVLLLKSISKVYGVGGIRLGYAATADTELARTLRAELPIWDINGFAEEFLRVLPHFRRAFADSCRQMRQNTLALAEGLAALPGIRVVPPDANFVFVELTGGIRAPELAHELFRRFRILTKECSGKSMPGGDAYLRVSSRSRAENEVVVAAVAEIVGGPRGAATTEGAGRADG", "assay": "HPLC / LC-MS product analysis", "conditions": "10 mM MgCl2, HEPES pH 7.25, 30 °C"}, "[3]": {"molecular_target": "T1, FrbI", "assay": "HPLC / LC-MS product analysis, coupled with FrbH, FrbF and FrbG", "conditions": "10 mM MgCl2, HEPES pH 7.25, 30 °C; substrate formed in situ"}},
  "data": [
    {"compound": "Nc1ccn([C@@H]2O[C@H](COP(=O)(O)OP(=O)(O)OP(=O)(O)O)[C@@H](O)[C@H]2O)c(=O)n1", "note": "[CTP]", "values": [
      {"measurement": "in vitro hydrolysis", "setting": "[1]", "value": "even showed a small amount of activity toward CTP"},
      {"measurement": "HPLC / LC-MS product analysis", "setting": "[2]; 2 mM (±)-2APn", "value": "FrbH condenses 2APn and CTP to form CMP-5'-2APn"}
    ]},
    {"compound": "NC(CCP(=O)(O)O)C(=O)O", "note": "(racemic) [VI, 2APn]", "values": [
      {"measurement": "HPLC / LC-MS product analysis", "setting": "[2]; 1 mM CTP", "value": "FrbH condenses 2APn and CTP to form CMP-5'-2APn"}
    ]},
    {"compound": "CC(=O)N(O)CCCP(=O)(O)OP(=O)(O)OC[C@H]1O[C@@H](n2ccc(N)nc2=O)[C@H](O)[C@@H]1O", "note": "[IX, CMP-5'-FR-900098]", "values": [
      {"measurement": "HPLC / LC-MS product analysis, coupled with FrbH, FrbF and FrbG", "setting": "[3]", "value": "FrbI catalyzes the hydrolysis of CMP-5'-FR-900098 to form FR-900098 and CMP"}
    ]}
  ]
}
